# Assay results published in patent US10173991B2, “Sulfone amide linked benzothiazole inhibitors of endothelial lipase” (BRISTOL-MYERS SQUIBB COMPANY, priority 2014, dated 2019).
# Target: Endothelial lipase (EL) (Homo sapiens (Human), UniProt Q9Y5X9)
# Test: Endothelial lipase (EL) enzymatic assay with fluorescent substrate A10070 in DMPG vesicles
# Type: biochemical
# Procedure, shortened: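 EL from conditioned medium of HT-1080 cells engineered to overexpress endogenous EL; HL partially purified from conditioned medium of HL-overexpressing COS cells. Enzyme preincubated with compound 30 min at 37° C in 50 mM HEPES pH 8.0, 50 mM NaCl, 1 mM CaCl2; DMPG vesicles carrying FRET substrate (0.11 mole fraction) then added.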
# Chain of Endothelial lipase (EL) (Q9Y5X9 21-500): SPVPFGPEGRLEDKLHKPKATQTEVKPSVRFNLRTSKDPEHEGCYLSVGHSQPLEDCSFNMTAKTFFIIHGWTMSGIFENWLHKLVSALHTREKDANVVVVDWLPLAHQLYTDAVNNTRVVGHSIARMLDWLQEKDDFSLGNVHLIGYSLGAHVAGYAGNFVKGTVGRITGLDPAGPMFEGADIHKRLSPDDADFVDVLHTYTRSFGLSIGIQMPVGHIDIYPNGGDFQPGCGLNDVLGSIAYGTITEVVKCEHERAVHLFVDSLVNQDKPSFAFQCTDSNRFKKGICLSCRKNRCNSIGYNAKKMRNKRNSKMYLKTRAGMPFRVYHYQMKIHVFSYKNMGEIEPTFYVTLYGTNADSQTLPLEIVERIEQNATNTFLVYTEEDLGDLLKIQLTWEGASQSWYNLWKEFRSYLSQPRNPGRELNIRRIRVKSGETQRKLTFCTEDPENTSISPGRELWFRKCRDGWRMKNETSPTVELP
row,Compound,IC50 [nM]
1,"CS(=O)(=O)C(C(=O)NCC(=O)NC1CC1)c1nc2ccc(-c3ccc(-n4cccn4)cc3)cc2s1 (stereo not drawn) [Example 373, N-[(cyclopropyl-carbamoyl)methyl]-2-methanesulfonyl-2-{6-[4-(1H-pyrazol-1-yl)phenyl]-1,3-benzothiazol-2-yl}acetamide]",2
2,"O=C(CNC(=O)C(c1nc2cc(F)c(-c3ccc(NC(=O)OCc4ccccn4)cc3)cc2s1)S(=O)(=O)CCC(F)(F)F)NC1CC1 (stereo not drawn) [Example 520, pyridin-2-ylmethyl N-{4-[2-({[(cyclopropyl-carbamoyl)methyl]carbamoyl}(3,3,3-trifluoropropane-sulfonyl)methyl)-5-fluoro-1,3-benzothiazol-6-yl]phenyl}carbamate]",2
3,"Cc1cc(-c2cc3nc(C(C(=O)NCC(=O)NCCOC(C)C)S(C)(=O)=O)sc3cc2F)cnn1 (stereo not drawn) [Example 362, 2-[6-fluoro-5-(6-methylpyridazin-4-yl)-1,3-benzothiazol-2-yl]-2-methanesulfonyl-N-({[2-(propan-2-yloxy)ethyl]carbamoyl}methyl)acetamide]",25
4,"CC(C)S(=O)(=O)C(C(=O)NCC(=O)NC1CC1)c1nc2cc(F)c(-c3ccc(C4CC4)nc3)cc2s1 (stereo not drawn) [Example 241, N-[(cyclopropyl-carbamoyl)methyl]-2-[6-(6-cyclopropyl-pyridin-3-yl)-5-fluoro-1,3-benzothiazol-2-yl]-2-(propane-2-sulfonyl) acetamide]",17
5,"COCCNC(=O)CNC(=O)C(c1nc2ccc(-c3ccc(F)nc3)cc2s1)S(=O)(=O)c1ccc(F)cc1 (stereo not drawn) [Example 461, 2-(4-fluorobenzene-sulfonyl)-2-[6-(6-fluoropyridin-3-yl)-1,3-benzothiazol-2-yl]-N-{[(2-methoxyethyl)carbamoyl]methyl} acetamide]",150
6,"COCCOC(=O)Nc1ccc(-c2cc3sc(C(C(=O)NCC(=O)NC4CC4)S(C)(=O)=O)nc3cc2F)cc1 (stereo not drawn) [Example 533, 2-methoxyethyl N-{4-[2-({[(cyclopropyl-carbamoyl)methyl]carbamoyl} (methanesulfonyl)methyl)-5-fluoro-1,3-benzothiazol-6-yl]phenyl} carbamate]",3
7,"Cc1ncc(-c2cc(F)c3nc(C(C(=O)NCC(=O)NC4CC4)S(=O)(=O)N(C)C)sc3c2)cn1 (stereo not drawn) [Example 491, N-[(cyclopropyl-carbamoyl)methyl]-2-(dimethyl-sulfamoyl)-2-[4-fluoro-6-(2-methylpyrimidin-5-yl)-1,3-benzothiazol-2-yl]acetamide]",82

# Continued, values first:
row,IC50 [nM],Compound
1,13,"COCCS(=O)(=O)C(C(=O)NCC(=O)NC1CC1)c1nc2cc(-c3ccc(F)nc3)ccc2s1 (stereo not drawn) [Example 385, N-[(cyclopropyl-carbamoyl)methyl]-2-[5-(6-fluoropyridin-3-yl)-1,3-benzothiazol-2-yl]-2-(2-methoxyethane-sulfonyl)acetamide]"
2,50,"COCCS(=O)(=O)C(C(=O)NCC(=O)NC1CC1)c1nc2ccc(-c3ccc(C(=O)N4CCOCC4)cc3)cc2s1 (stereo not drawn) [Example 309, N-[(cyclopropyl-carbamoyl)methyl]-2-(2-methoxyethane-sulfonyl)-2-{6-[4-(morpholine-4-arbonyl)phenyl]-1,3-benzothiazol-2-yl}acetamide]"
3,10,COCCS(=O)(=O)C(C(=O)NCC(=O)NC1CC1)c1nc2ccc(-c3ccc(C(=O)N4CC(F)C4)cc3)cc2s1 (stereo not drawn) [Example 404]
4,36,"COCCS(=O)(=O)C(C(=O)NCC(=O)NC1CC1)c1nc2ccc(-c3cnc(F)c(C)c3)cc2s1 (stereo not drawn) [Example 294, N-[(cyclopropyl-carbamoyl)methyl]-2-[6-(6-fluoro-5-methylpyridin-3-yl)-1,3-benzothiazol-2-yl]-2-(2-methoxyethane-sulfonyl)acetamide]"
5,49,"COCCS(=O)(=O)C(C(=O)NCC(=O)NC1CC1)c1nc2cc(-c3ccc(F)cc3)ccc2s1 (stereo not drawn) [Example 135, N-[(cyclopropyl-carbamoyl)methyl]-2-[5-(4-fluorophenyl)-1,3-benzothiazol-2-yl]-2-(2-methoxyethane-sulfonyl) acetamide]"
